Experimental data: patent US20190099523A1, “FILM-FORMING COMPOSITION FOR A PH-DEPENDANT SUSTAINED RELEASE OF THE ACTIVE AGENT” (YISSUM RESEARCH DEVELOPMENT COMPANY OF THE HEBREW …, priority 2011, published 2019)
One block for each compound: values may come before it.

Tests used:
Assay type in all cases: physicochemical
[1] = Clotrimazole release rate from films; details: Clotrimazole-1 film
Description: Determining the clotrimazole release rate from the films was conducted by first placing the films in 350 ml glass vessels, containing Trizma base buffer (50 mM) with 0.2% SLS (sodium lauryl sulphate) at pH=5.0 and 6.8 and 50 cpm, at 37° C.
(§1) Then, 1 cc samples were taken from the glass vessels at pre-determined intervals (each hour from 1 to 8 hrs). The released clotrimazole concentration was measured spectrophotometrically at 206 nm (Uvikon 933: Kontron Instruments). The concentration of the CHX was calculated according to a reference curve.
In a different experiment, the films were kept at a pH 5.0 buffer for 2 hours, then kept at a pH 6.8 buffer for 2 hours, then at a pH 5.0 buffer for 2 hours and again at a pH 6.8 buffer for 2 hours. Samples were taken at similar intervals.

[2] = Triclosane release rate from films; details: Tric-1 film; Trizma base buffer 50 mM +10% SLS, 37° C.; pH 5.0 / 6.8 / 5.0 / 6.8, 2 hours each; FIG. 6
Description: Determining the triclosane release rate from the films was conducted by first placing the films in 100 ml glass vessels, containing Trizma base buffer (50 mM, +10% SLS (sodium lauryl sulphate) at pH=5.0 and 6.8 at 50 rpm, at 37° C.
as §1, with “Then, 2” for “Then, 1”, “released triclosane” for “released clotrimazole”, “at 280” for “at 206”, “the triclosane” for “the CHX”
(§2) In a different experiment, the films were kept at a pH 5.0 buffer for 2 hours, then at a pH 6.8 buffer for 2 hours, then at a pH 5.0 buffer for 2 hours and again at a pH 6.8 buffer for 2 hours. Samples were taken at similar intervals.

[3] = CHX release rate from films; details: CHX-1 film; phosphate buffer, 37° C., 1-8 hours; FIG. 3
Description: Determining the CHX release rate from the films was conducted by first placing the films in 100 ml glass vessels, containing phosphate buffer at pH=5.0 and 6.8 and 50 cpm, at 37° C.
Then, 1 cc samples were taken from the glass vessels at pre-determined intervals (each hour from 1 to 8 hrs).
The released CHX concentration was measured spectrophotometrically at 260 nm (Uvikon 933: Kontron Instruments). The concentration of the CHX was calculated according to a reference curve.
as §2

- clotrimazole release rate (as % of the initial amount in film), pH 5.0 compared with pH 6.8 ([1]; Trizma base buffer 50 mM with 0.2% SLS, 37° C., 1-8 hours, FIG. 1): much faster
- effect of pH 6.8 on clotrimazole release rate, pH change profile ([1]; pH 5.0 / 6.8 / 5.0 / 6.8, 2 hours each, FIG. 2): retards the rate of release
Compound: Clc1ccccc1C(c1ccccc1)(c1ccccc1)n1ccnc1 [clotrimazole, Clotrimazole]

Compound: Oc1cc(Cl)ccc1Oc1ccc(Cl)cc1Cl [triclosane, Triclosane]
- triclosane release rate at pH 5.0 compared with pH 6.8, pH change profile [2]: significantly faster

- CHX release rate (as % of the initial amount in film), pH 5.0 compared with pH 6.8 [3]: higher release rate at pH 5.0
Compound: CC(=O)O.CC(=O)O.NC(=N\CCCCCC/N=C(N)/N=C(\N)Nc1ccc(Cl)cc1)/N=C(\N)Nc1ccc(Cl)cc1 [CHX, Chlorhexidine-Diacetate]
